Test results reported in PMC8136953 (Veterinary Medicine and Science, 2020).
Read-outs that look alike come from different tables or passages of the source.

Assays:
[1] = Minimum plasma concentrations of FLO during multiple oral administrations; type: in vivo; conditions: European seabass (Dicentrarchus labrax), 10 mg/kg/day, multiple oral 10 mg/kg per day for seven consecutive days, 24°C, read-out: Minimum plasma concentrations at the 24 hr sampling intervals
Method: The extraction step was repeated twice.
The flow rate was 1.0 ml/min.
Results are presented as means ± SD (standard deviation of the mean). […] The SPSS version 25.0 (International Business Machines Corporation, Armonk, NY, USA) was used for the statistical analysis.

[2] = parameters: method as in Kosoff et al. (2009); conditions: 0‰, MO, 10 × 10d mg/kg fish, 49–52 g, 20–25 °C; ref Kosoff et al. (2009); cited from earlier work
[3] = parameters: method as in Huang et al. (2019); conditions: 0‰, 50 g, ref Huang et al. (2019), cited from earlier work; for C max / T max / t 1/2b: SO‐FA, 25 mg/kg fish
[4] = 0‰, cited from earlier work
[5] = parameters: method as in Wrzesinski et al. (2006); conditions: 0‰, MO, 10 × 12d mg/kg fish, 916 g, 18–20 °C; ref Wrzesinski et al. (2006); cited from earlier work
[6] = parameters: method as in Park et al. (2006); conditions: 0‰, SO, 20 mg/kg fish, 280 g, 24 °C; ref Park et al. (2006); cited from earlier work
[7] = parameters: method as in Xie et al. (2013); conditions: 0‰, SO‐FA, 20 mg/kg fish, 71 g, 25 °C; ref Xie et al. (2013); cited from earlier work
[8] = parameters: method as in Yanong et al. (2005); conditions: 0‰, SO, 50 mg/kg fish, 144 g, 23–25 °C; ref Yanong et al. (2005); cited from earlier work
[9] = parameters: method as in Yanong et al. (2005); conditions: 0‰, SO, 50 mg/kg fish, 19 g, 23–25 °C; ref Yanong et al. (2005); cited from earlier work
[10] = 0‰, 25 °C, cited from earlier work
[11] = cited from earlier work
[12] = parameters: method as in de Ocenda et al. (2017); conditions: 35‰, SO‐FA, 100 mg/kg fish, 101 g, 16 °C; ref de Ocenda et al. (2017); cited from earlier work
[13] = parameters: method as in Lim et al. (2010); conditions: ref Lim et al. (2010), cited from earlier work
[14] = parameters: method as in Chang et al. (2019); conditions: 31‰, SO‐FA, 30 mg/kg fish, 615 g, ref Chang et al. (2019), cited from earlier work
[15] = parameters: method as in Kverme et al. (2019); conditions: 34‰, SO‐FA, 10 mg/kg fish, 114 g, 12 °C; ref Kverme et al. (2019); cited from earlier work
[16] = parameters: method as in Kosoff et al. (2009); conditions: 26–30‰, MO, 10 × 10d mg/kg fish, 384–426 g, 20–25 °C; ref Kosoff et al. (2009); cited from earlier work
[17] = 28‰, MO, 10 × 10d mg/kg fish, 150 g, 27 °C; ref Di Salvo et al. (2013); cited from earlier work
[18] = 33‰, SO‐FA, cited from earlier work
[19] = MO‐FA, 10 × 5d mg/kg fish, 330 g, 10 °C, ref Yang et al. (2020)
[20] = MO‐FA, 10 × 5d mg/kg fish, 330 g, 25 °C, ref Yang et al. (2020)
[21] = SO‐FA, 10 mg/kg fish, 260 g, 10 °C, ref Yang et al. (2019)
[22] = SO‐FA, 10 mg/kg fish, 260 g, 25 °C, ref Yang et al. (2019)
[23] = SO‐FA, 40 mg/kg fish, 260 g, 25 °C, ref Zhao et al. (2011)
[24] = MO‐FA, 10 × 10d mg/kg fish, 612 g, ref Gaunt et al. (2013)
[25] = SO‐FA, 10 mg/kg fish, ref Gaunt et al. (2012)
[26] = 30‰, SO‐FA, 10 mg/kg fish, 194 g, 11 °C, ref Martinsen et al. (1993)
[27] = 33‰, MO, 20 × 3d mg/kg fish, 380 g, 19 °C
[28] = 24 mg/kg fish, 125 g, 23 °C, ref Feng et al. (2016)
[29] = 5–10 mg/kg fish, 103–301 g, 29 °C, ref Feng et al. (2018)

Structure (SMILES): CS(=O)(=O)c1ccc([C@@H](O)[C@@H](CF)NC(=O)C(Cl)Cl)cc1 [FLO, florfenicol]
- concentration at 24 hr [1]: 220 to 550 ng/mL
- C max [2]: 9200 to 15100 ng/mL
- WT [2]: 232 to 302 h
- WT ([3]; MO‐FA, 25 × 3d mg/kg fish, 28 °C): 198 h
- C max ([3]; 18 °C): 5900 ng/mL
- T max ([3]; 18 °C): 6.0 h
- t 1/2b ([3]; 18 °C): 26.8 h
- C max ([3]; 28 °C): 6200 ng/mL
- T max ([3]; 28 °C): 2.8 h
- t 1/2b ([3]; 28 °C): 16.1 h
- C max [4, 19]: 4000 ng/mL
- t 1/2b [4, 19]: 19.9 h
- C max [4, 20]: 1700 ng/mL
- t 1/2b [4, 20]: 12.9 h
- C max [4, 21]: 2400 ng/mL
- T max [4, 21]: 2.8 h
- t 1/2b [4, 21]: 22.9 h
- C max [4, 22]: 3500 ng/mL
- T max [4, 22]: 3.7 h
- t 1/2b [4, 22]: 9.6 h
- C max [4, 23]: 29300 ng/mL
- T max [4, 23]: 1.6 h
- t 1/2b [4, 23]: 2.2 h
- WT [5]: 96 h
- C max [6]: 9600 ng/mL
- T max [6]: 8 h
- C max [7]: 8400 ng/mL
- T max [7]: 5 h
- t 1/2b [7]: 13.5 h
- C max [8]: 12300 ng/mL
- T max [8]: 3 h
- C max [9]: 2600 ng/mL
- T max [9]: 5 h
- C max [10, 24]: 9700 ng/mL
- T max [10, 24]: 8 h
- C max [10, 25]: 7600 ng/mL
- T max [10, 25]: 9 h
- t 1/2b [10, 25]: 9.1 h
- C max [11, 26]: 4000 ng/mL
- T max [11, 26]: 10.3 h
- C max ([11]; 35‰, MO, 10 × 10d mg/kg fish, 497 g, 10 °C, ref Horsberg et al. (1996)): 8560 ng/mL
- C max ([11]; 35‰, SO‐FA, 10 mg/kg fish, 460 g, 10 °C, ref Horsberg et al. (1996)): 9100 ng/mL
- C max [12]: 55400 ng/mL
- T max [12]: 12 h
- C max [13, 27]: 12200 ng/mL
- WT [13, 27]: 189 h
- Tissue distribution ([13]; multiple oral 20 mg kg^−1 day^−1 for three consecutive days): higher tissue concentrations of FLO in gills than in the other tested tissue samples
- C max ([14]; 15 °C): 9100 ng/mL
- t 1/2b ([14]; 15 °C): 14.3 h
- T max ([14]; 15–20 °C): 12 h
- C max ([14]; 20 °C): 12200 ng/mL
- t 1/2b ([14]; 20 °C): 9.7 h
- C max [15]: 3600 ng/mL
- T max [15]: 21.2 h
- t 1/2b [15]: 21.2 h
- C max [16]: 1800 to 3500 ng/mL
- WT [16]: 17 to 62 h
- WT [17]: 95 h
- C max [18, 28]: 28000 ng/mL
- t 1/2b [18, 28]: 11.6 h
- C max [18, 29]: 6000 to 13000 ng/mL
- t 1/2b [18, 29]: 8.5 to 9.3 h
